In brackets after ≈: the same amount, converted by molar mass. Activity calls are given as the source filed them. The rule behind the calls is not given here.
Legend:
Cyberlindnera jadinii [1] = assay: Potency index, ratio of fluconazole MIC to compound MIC for Candida utilis ATCC9950; type: functional
Bacillus [2] = assay: Antibacterial activity against Bacillus proteus ATCC13315 after 24 hrs by two fold serial dilution method; type: functional; conditions: ATCC13315, 24 h
Escherichia coli [3] = assay: Antibacterial activity against Escherichia coli DH52 after 24 hrs by two fold serial dilution method; type: functional; conditions: DH52, 24 h
Bacillus subtilis = assay: Antibacterial activity against Bacillus subtilis ATCC6633 after 24 hrs by two fold serial dilution method; type: functional; conditions: ATCC6633, 24 h
Aspergillus flavus = assay: Antifungal activity against Aspergillus flavus ATCC204304 after 24 hrs by two fold serial dilution method; type: functional; conditions: ATCC204304, 24 h
Staphylococcus aureus [4] = assay: Antibacterial activity against methicillin-resistant Staphylococcus aureus N315 after 24 hrs by two fold serial dilution method; type: functional; conditions: N315, 24 h
Micrococcus luteus = assay: Antibacterial activity against Micrococcus luteus ATCC4698 after 24 hrs by two fold serial dilution method; type: functional; conditions: ATCC4698, 24 h
Candida = assay: Antifungal activity against Candida mycoderma ATCC10231 after 24 hrs by two fold serial dilution method; type: functional; conditions: ATCC10231, 24 h
Escherichia coli [5] = assay: Antibacterial activity against Escherichia coli JM109 after 24 hrs by two fold serial dilution method; type: functional; conditions: JM109, 24 h
Staphylococcus aureus [6] = assay: Antibacterial activity against Staphylococcus aureus ATCC25923 after 24 hrs by two fold serial dilution method; type: functional; conditions: ATCC25923, 24 h
Cyberlindnera jadinii [7] = assay: Antifungal activity against Candida utilis ATCC9950 after 24 hrs by two fold serial dilution method; type: functional; conditions: Williopsis jadinii, ATCC9950, 24 h
Shigella dysenteriae = assay: Antibacterial activity against Shigella dysenteriae after 24 hrs by two fold serial dilution method; type: functional
Candida albicans = assay: Antifungal activity against Candida albicans ATCC76615 after 24 hrs by two fold serial dilution method; type: functional; conditions: ATCC76615, 24 h
Pseudomonas aeruginosa = assay: Antibacterial activity against Pseudomonas aeruginosa ATCC27853 after 24 hrs by two fold serial dilution method; type: functional; conditions: ATCC27853, 24 h
Saccharomyces cerevisiae = assay: Antifungal activity against Beer yeast ATCC9763 after 24 hrs by two fold serial dilution method; type: functional; conditions: ATCC9763, 24 h
Salmonella typhi = assay: Antibacterial activity against Bacillus typhi after 24 hrs by two fold serial dilution method; type: functional, Salmonella enterica subsp. enterica serovar Typhi; conditions: Salmonella enterica
Calf thymus DNA [8] = assay: Binding affinity to calf thymus DNA assessed as hypochromism at 260 nm at 0 to 9 X 10^-5 mol/L by UV-Vis spectroscopy; type: nucleic-acid assay; conditions: Bos taurus
Calf thymus DNA [9] = assay: Binding affinity to neutral red bound calf thymus DNA assessed as increase in absorption at 460 nm at 0 to 10.5 X 10^-5 mol/L by UV-Vis spectroscopy; type: nucleic-acid assay; conditions: Bos taurus
Staphylococcus aureus [10] = assay: Antibacterial activity against methicillin-resistant Staphylococcus aureus N315 assessed as membrane permeabilization at 12 times MIC monitored for 2 hrs by propidium iodide staining method; type: functional, organism-based
Calf thymus DNA [11] = assay: Binding affinity to calf thymus DNA at 260 nm by UV-Vis spectroscopy; type: nucleic-acid assay; conditions: Bos taurus
Staphylococcus aureus [12] = assay: Bactericidal activity against methicillin-resistant Staphylococcus aureus N315 assessed as reduction in viable bacterial count at 6 times MIC within 1.5 hrs by time kill assay; type: functional
Staphylococcus aureus [13] = assay: Antibacterial activity against methicillin-resistant Staphylococcus aureus N315 at 0.5 times MIC after 10 passages by two fold serial dilution method; type: functional, organism-based
Staphylococcus aureus [14] = assay: Potency index, ratio of norfloxacin MIC to compound MIC for methicillin-resistant Staphylococcus aureus N315; type: functional
Bacillus [15] = assay: Antibacterial activity against Bacillus proteus ATCC13315 assessed as membrane permeabilization at 12 times MIC monitored for 2 hrs by propidium iodide staining method; type: functional, organism-based
Staphylococcus aureus [16] = assay: Ratio of MIC for methicillin-resistant Staphylococcus aureus N315 after 10 passages to MIC for methicillin-resistant Staphylococcus aureus N315 before 10 passages; type: functional
Staphylococcus aureus [17] = assay: Potency index, ratio of chloromycin MIC to compound MIC for methicillin-resistant Staphylococcus aureus N315; type: functional

Row | SMILES | MIC (Bacillus [2]) [µM] | MIC (Escherichia coli [3]) [µM] | MIC (Bacillus subtilis) [µM] | MIC (Aspergillus flavus) [µM] | MIC (Staphylococcus aureus [4]) [µM] | MIC (Micrococcus luteus) [µM] | MIC (Candida) [µM] | MIC (Escherichia coli [5]) [µM] | MIC (Staphylococcus aureus [6]) [µM] | MIC (Cyberlindnera jadinii [7]) [µM] | MIC (Shigella dysenteriae) [µM] | MIC (Candida albicans) [µM] | MIC (Pseudomonas aeruginosa) [µM] | MIC (Saccharomyces cerevisiae) [µM] | MIC (Salmonella typhi) [µM] | further results
1 | CCCCCCCCCCn1c(CCCC)nc(Cl)c1/C=N/N1C(=O)c2cccc3c(N4CCOCC4)ccc(c23)C1=O | 210 (≈ 127 µg/mL) | 420 (≈ 255 µg/mL) | 30 (≈ 18.2 µg/mL) | 210 (≈ 127 µg/mL) | 30 (≈ 18.2 µg/mL) | 840 (≈ 509 µg/mL) | 210 (≈ 127 µg/mL) | 840 (≈ 509 µg/mL) | 420 (≈ 255 µg/mL) | 3 (≈ 1.82 µg/mL) | 0.1 (≈ 0.0606 µg/mL) | 210 (≈ 127 µg/mL) | 420 (≈ 255 µg/mL) | 420 (≈ 255 µg/mL) | 0.84 (≈ 0.509 µg/mL) | Ratio (Cyberlindnera jadinii [1]): 10
2 | CCCCc1nc(Cl)c(/C=N/N2C(=O)c3cccc4c(N5CCOCC5)ccc(c34)C2=O)n1Cc1ccc([N+](=O)[O-])cc1 | 110 (≈ 66.1 µg/mL) | 420 (≈ 252 µg/mL) | 210 (≈ 126 µg/mL) | 110 (≈ 66.1 µg/mL) | 3 (≈ 1.8 µg/mL) | 850 (≈ 511 µg/mL) | 50 (≈ 30.1 µg/mL) | 50 (≈ 30.1 µg/mL) | 210 (≈ 126 µg/mL) | 10 (≈ 6.01 µg/mL) | 0.11 (≈ 0.0661 µg/mL) | 3 (≈ 1.8 µg/mL) | 50 (≈ 30.1 µg/mL) | 420 (≈ 252 µg/mL) | 0.11 (≈ 0.0661 µg/mL) | Activity (Calf thymus DNA [8]): Active; Activity (Calf thymus DNA [9]): Active; Activity (Staphylococcus aureus [10]): Active; K (Calf thymus DNA [11]): 0.59 ×10⁴ L/mol; Activity (Staphylococcus aureus [12]): >3 log10CFU/ml; Activity (Staphylococcus aureus [13]): Active; Ratio (Staphylococcus aureus [14]): 7; Activity (Bacillus [15]): Active; Ratio (Staphylococcus aureus [16]): <=100; Ratio (Staphylococcus aureus [17]): 17

Reference: ChEMBL document CHEMBL3817825, “Synthesis and biological evaluation of Schiff base-linked imidazolyl naphthalimides as novel potential anti-MRSA agents” (2016)
